According to patent publication US20100210555A1, “USE OF A LAMININ PEPTIDE AS A THERAPEUTIC AGENT” (priority 2007, published 2010):
Where no end group is shown, it is not given here.

Key:
[1] = test system: HCMV strain AD169; experiment: HCMV plaque formation assay in MRC-5 cells; details: for inhibition of HCMV plaque formation as compared to the virus control: 10 micrograms per ml, 7-10 days
[2] = test system: Primary Human endothelial cells (HUVEC); experiment: Endothelial cell migration assay; assay type: cell-based; details: 10 micrograms per ml, 22 hours, combination peptide 1:peptide 2 0.95 mole: 1.05 mole
[3] = test system: HUVEC; experiment: Endothelial tube formation assay; assay type: cell-based, human; details: 10 micrograms per ml, 20 hours, combination peptide 1:peptide 2 0.95 mole: 1.05 mole
Description: Positive control was vehicle only.

[4] = test system: spleen cells; experiment: Th1/Th2 cytokine profiling assay; assay type: cell-based, Balb/c mice; details: 10 micrograms per ml; Ovalbumin restimulation, 72 hours
[5] = test system: hepatitis B virus (HBV) ayw strain; experiment: HBV experimental assay system (HepG2-2.2.15, TaqMan PCR of secreted HBV DNA); assay type: cell-based; details: 10 micrograms per ml; HepG2-2.2.15 cells, six days
Description: HepG2-2.2.15 is a stable cell line containing the hepatitis B virus (HBV) ayw strain genome (ATCC Cat. No. CRL-11997). Antiviral compounds blocking any late step of viral replication such as transcription, translation, pregenome encapsidation, reverse transcription, particle assembly and release can be identified and characterized using this cell line. In this assay, an active compound will reduce the production of secreted HBV from cells, measured by utilizing real time quantitative PCR (TaqMan) assay to directly and accurately measure HBV DNA copies.
HepG2-2.2.15 cells were plated in 96-well microtiter plates. After 16-24 hours the confluent monolayer of HepG2-2.2.15 cells was washed and the medium was replaced with complete medium containing test peptides—10 micrograms per ml—in duplicate. […] Six days following the initial administration of the peptides, the cell culture supernatants was collected, treated with pronase and DNAse and then used in a real-time quantitative TaqMan PCR assay. The PCR-amplified HBV DNA was detected in real-time by monitoring increases in fluorescence signals that result from the exonucleolytic degradation of a quenched fluorescence probe molecule that hybridizes to the mplified HBV DNA. […] Antiviral activity was calculated from the reduction in HBV DNA levels (% virus control). […]

Compound | antiviral activity of positive control compound (HCMV) ([1]; positive control, HCMV AD169) | inhibition of the migration of human endothelial cells [2] | inhibition of the tube formation of endothelial cells [3] | IFNγ spleen cells; TH1 response (% of control) [4] | IL-2 spleen cells (% of control) [4] | IL-4 spleen cells; TH2 response (% of control) [4] | IL-5 spleen cells; TH2 response (% of control) [4] | TNF-a spleen cells; TH1 response (% of control) [4] | inhibition of HCMV plaque formation as compared to the virus control [1] | inhibition of HBV replication as compared to the virus control infection [5]
Nc1nc(O)c2ncn(COC(CO)CO)c2n1 [Ganciclovir, reference compound] | expected levels of antiviral activity | – | – | – | – | – | – | – | – | –
Pro-His-Pro-Phe-His-Leu-Phe-Val-Tyr-OH (PHPFHLFVY-OH) [peptide 2] | – | 33% | 27% | 76.6 % of control | 70.7 % of control | 113.5 % of control | 57.6 % of control | 111.8 % of control | did not inhibit | no effect
Cys-Ser-Arg-Ala-Arg-Lys-Gln-Ala-Ala-Ser-Ile-Lys-Val-Ala-Val-Ser-Ala-Asp-Arg-OH (CSRARKQAASIKVAVSADR-OH) [peptide 1] | – | 32% | 30% | 88.8 % of control | 66.8 % of control | 148.8 % of control | 64.5 % of control | 101.0 % of control | did not inhibit | 22.1%
